Measured values reported in ChEMBL document CHEMBL1201862, “PubChem BioAssay data set” (2004).
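A five-concentration, 48-hour dose response in 96-well plates underlies each endpoint, interpolated linearly between surrounding concentrations. GI50 marks 50% less growth.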 Activity calls are given as the source filed them. Cut-off read from the data, not from the text of the source: active = GI50 up to about 1.1 µM and inactive = higher.

Columns and labels:
Assay in all cases: NCI anticancer screen, dose series, 48 h
SW-620 = tested on: SW-620
NCI/ADR-RES = tested on: NCI/ADR-RES
HL-60 = tested on: HL-60
COLO 205 = tested on: COLO 205
Malme-3M = tested on: Malme-3M
EKVX = tested on: EKVX
MDA-MB-435 = tested on: MDA-MB-435
SF-295 = tested on: SF-295
CCRF-CEM = tested on: CCRF-CEM
HOP-92 = tested on: HOP-92
KM12 = tested on: KM12
SK-OV-3 = tested on: SK-OV-3
MDA-N = tested on: MDA-N
786-0 = tested on: 786-0
OVCAR-4 = tested on: OVCAR-4
SNB-19 = tested on: SNB-19
UO-31 = tested on: UO-31
OVCAR-5 = tested on: OVCAR-5
HCT-116 = tested on: HCT-116
MOLT-4 = tested on: MOLT-4
SNB-75 = tested on: SNB-75
UACC-62 = tested on: UACC-62
SF-539 = tested on: SF-539
CAKI-1 = tested on: CAKI-1
NCI-H522 = tested on: NCI-H522
MCF7 = tested on: MCF7
LOX IMVI = tested on: LOX IMVI
NCI-H226 = tested on: NCI-H226
OVCAR-3 = tested on: OVCAR-3
ACHN = tested on: ACHN
SK-MEL-5 = tested on: SK-MEL-5
PC-3 = tested on: PC-3
SN12C = tested on: SN12C
BT-549 = tested on: BT-549
T47D = tested on: T47D
DU-145 = tested on: DU-145
SK-MEL-2 = tested on: SK-MEL-2
IGROV-1 = tested on: IGROV-1
NCI-H23 = tested on: NCI-H23
RPMI-8226 = tested on: RPMI-8226
HCT-15 = tested on: HCT-15
RXF 393 = tested on: RXF 393
M14 = tested on: M14
A549 = tested on: A549
SF-268 = tested on: SF-268
SK-MEL-28 = tested on: SK-MEL-28
SR = tested on: SR
OVCAR-8 = tested on: OVCAR-8
A498 = tested on: A498
K562 = tested on: K562
HT-29 = tested on: HT-29
TK-10 = tested on: TK-10
HCC 2998 = tested on: HCC 2998
HOP-62 = tested on: HOP-62
Hs-578T = tested on: Hs-578T
MDA-MB-231 = tested on: MDA-MB-231
UACC-257 = tested on: UACC-257
NCI-H460 = tested on: NCI-H460
U-251 = tested on: U-251

COc1cc(C2C(Cl)C(=O)N2NC(=O)c2ccc(NC(C)=O)cc2OC)ccc1O (configuration not stated)
GI50 (SW-620): 24.7 µM (inactive) | GI50 (NCI/ADR-RES): 37.5 µM (inactive) | GI50 (HL-60): 20.3 µM (inactive) | GI50 (COLO 205): 14.9 µM (inactive) | GI50 (Malme-3M): 24.4 µM (inactive) | GI50 (EKVX): 13.6 µM (inactive) | GI50 (MDA-MB-435): 28 µM (inactive) | GI50 (SF-295): < 0.01 µM (active) | GI50 (CCRF-CEM): 2.64 µM (inactive) | GI50 (HOP-92): 16 µM (inactive) | GI50 (KM12): 20.4 µM (inactive) | GI50 (SK-OV-3): 63.1 µM (inactive) | GI50 (MDA-N): 20 µM (inactive) | GI50 (786-0): 15.1 µM (inactive) | GI50 (OVCAR-4): 39.1 µM (inactive) | GI50 (SNB-19): 17.4 µM (inactive) | GI50 (UO-31): 25.1 µM (inactive) | GI50 (OVCAR-5): 13.2 µM (inactive) | GI50 (HCT-116): 16.9 µM (inactive) | GI50 (MOLT-4): 3.96 µM (inactive) | GI50 (SNB-75): 29.4 µM (inactive) | GI50 (UACC-62): 18.1 µM (inactive) | GI50 (SF-539): 19.1 µM (inactive) | GI50 (CAKI-1): 31.1 µM (inactive) | GI50 (NCI-H522): 8.45 µM (inactive) | GI50 (MCF7): 19.3 µM (inactive) | GI50 (LOX IMVI): 7.28 µM (inactive) | GI50 (NCI-H226): 10.6 µM (inactive) | GI50 (OVCAR-3): 21.4 µM (inactive) | GI50 (ACHN): 23.3 µM (inactive) | GI50 (SK-MEL-5): 15.2 µM (inactive) | GI50 (PC-3): 19.4 µM (inactive) | GI50 (SN12C): 17.9 µM (inactive) | GI50 (BT-549): 17.3 µM (inactive) | GI50 (T47D): 20.9 µM (inactive) | GI50 (DU-145): 21.3 µM (inactive) | GI50 (SK-MEL-2): 14.5 µM (inactive) | GI50 (IGROV-1): 17.5 µM (inactive) | GI50 (NCI-H23): 17.7 µM (inactive) | GI50 (RPMI-8226): 1.94 µM (inactive) | GI50 (HCT-15): 19.5 µM | GI50 (RXF 393): 20.6 µM (inactive) | GI50 (M14): 16.3 µM (inactive) | GI50 (A549): 32.1 µM (inactive) | GI50 (SF-268): 21.8 µM (inactive) | GI50 (SK-MEL-28): 28.7 µM (inactive) | GI50 (SR): 7.29 µM (inactive) | GI50 (OVCAR-8): 22.2 µM (inactive) | GI50 (A498): 19.4 µM (inactive) | GI50 (K562): 18.1 µM (inactive) | GI50 (HT-29): 15.1 µM (inactive)

COc1ccc(C2C(=O)c3c(OC)cc(OC)cc3OC2c2cccnc2)cc1 (configuration not stated)
GI50 (SW-620): > 100 µM (inactive) | GI50 (NCI/ADR-RES): > 100 µM (inactive) | GI50 (TK-10): > 100 µM (inactive) | GI50 (COLO 205): 70.3 µM (inactive) | GI50 (Malme-3M): 67.9 µM (inactive) | GI50 (EKVX): > 100 µM (inactive) | GI50 (MDA-MB-435): 44.5 µM (inactive) | GI50 (SF-295): 53.5 µM (inactive) | GI50 (CCRF-CEM): 66.2 µM (inactive) | GI50 (KM12): > 100 µM (inactive) | GI50 (SK-OV-3): > 100 µM (inactive) | GI50 (MDA-N): 46.7 µM (inactive) | GI50 (786-0): > 100 µM (inactive) | GI50 (OVCAR-4): 44.2 µM (inactive) | GI50 (SNB-19): > 100 µM (inactive) | GI50 (UO-31): 32.2 µM (inactive) | GI50 (OVCAR-5): > 100 µM (inactive) | GI50 (HCC 2998): > 100 µM (inactive) | GI50 (HCT-116): > 100 µM (inactive) | GI50 (MOLT-4): 46 µM (inactive) | GI50 (SNB-75): 27.4 µM (inactive) | GI50 (UACC-62): 82.2 µM (inactive) | GI50 (SF-539): > 100 µM (inactive) | GI50 (CAKI-1): > 100 µM (inactive) | GI50 (NCI-H522): 35.8 µM (inactive) | GI50 (MCF7): > 100 µM (inactive) | GI50 (LOX IMVI): 61.2 µM (inactive) | GI50 (HOP-62): > 100 µM (inactive) | GI50 (NCI-H226): 43.8 µM (inactive) | GI50 (OVCAR-3): > 100 µM (inactive) | GI50 (Hs-578T): > 100 µM (inactive) | GI50 (ACHN): > 100 µM (inactive) | GI50 (SK-MEL-5): > 100 µM (inactive) | GI50 (PC-3): > 100 µM (inactive) | GI50 (SN12C): > 100 µM (inactive) | GI50 (T47D): > 100 µM (inactive) | GI50 (DU-145): > 100 µM (inactive) | GI50 (SK-MEL-2): > 100 µM (inactive) | GI50 (IGROV-1): > 100 µM (inactive) | GI50 (NCI-H23): > 100 µM (inactive) | GI50 (MDA-MB-231): > 100 µM (inactive) | GI50 (HCT-15): > 100 µM | GI50 (RXF 393): > 100 µM (inactive) | GI50 (UACC-257): > 100 µM (inactive) | GI50 (M14): > 100 µM (inactive) | GI50 (A549): > 100 µM (inactive) | GI50 (NCI-H460): 92.7 µM (inactive) | GI50 (SF-268): > 100 µM (inactive) | GI50 (SK-MEL-28): > 100 µM (inactive) | GI50 (SR): 37.6 µM (inactive) | GI50 (OVCAR-8): > 100 µM (inactive) | GI50 (A498): > 100 µM (inactive) | GI50 (K562): 59.6 µM (inactive) | GI50 (HT-29): 71.3 µM (inactive)

Cc1cc(Cl)ccc1/N=N/C(=O)NNc1ccc(Cl)cc1C
GI50 (SW-620): 15.9 µM (inactive) | GI50 (TK-10): 18.2 µM (inactive) | GI50 (HL-60): 20.3 µM (inactive) | GI50 (Malme-3M): 21 µM (inactive) | GI50 (MDA-MB-435): 20.7 µM (inactive) | GI50 (CCRF-CEM): 21.1 µM (inactive) | GI50 (MDA-N): 16.3 µM (inactive) | GI50 (786-0): 16.3 µM (inactive) | GI50 (OVCAR-4): 17.7 µM (inactive) | GI50 (SNB-19): 17.6 µM (inactive) | GI50 (UO-31): 13 µM (inactive) | GI50 (OVCAR-5): 15.8 µM (inactive) | GI50 (HCC 2998): 11.5 µM (inactive) | GI50 (HCT-116): 13.4 µM (inactive) | GI50 (MOLT-4): 14 µM (inactive) | GI50 (SNB-75): 15.6 µM (inactive) | GI50 (UACC-62): 9.04 µM (inactive) | GI50 (U-251): 16.4 µM (inactive) | GI50 (NCI-H522): 20.3 µM (inactive) | GI50 (LOX IMVI): 16.9 µM (inactive) | GI50 (HOP-62): 11.5 µM (inactive) | GI50 (NCI-H226): 16.4 µM (inactive) | GI50 (OVCAR-3): 17.2 µM (inactive) | GI50 (ACHN): 16.1 µM (inactive) | GI50 (SK-MEL-5): 13.9 µM (inactive) | GI50 (PC-3): 10.4 µM (inactive) | GI50 (SN12C): 15.4 µM (inactive) | GI50 (BT-549): 15.6 µM (inactive) | GI50 (T47D): 5.87 µM (inactive) | GI50 (DU-145): 10.7 µM (inactive) | GI50 (SK-MEL-2): 14.1 µM (inactive) | GI50 (IGROV-1): 6.62 µM (inactive) | GI50 (NCI-H23): 15.5 µM (inactive) | GI50 (RPMI-8226): 22.2 µM (inactive) | GI50 (MDA-MB-231): 11.7 µM (inactive) | GI50 (HCT-15): 12.2 µM | GI50 (UACC-257): 17.1 µM (inactive) | GI50 (M14): 16.9 µM (inactive) | GI50 (A549): 12.9 µM (inactive) | GI50 (NCI-H460): 14.4 µM (inactive) | GI50 (SF-268): 16.4 µM (inactive) | GI50 (SK-MEL-28): 16.1 µM (inactive) | GI50 (SR): 22.2 µM (inactive) | GI50 (OVCAR-8): 13 µM (inactive) | GI50 (A498): 9.06 µM (inactive) | GI50 (K562): 22 µM (inactive) | GI50 (HT-29): 21.3 µM (inactive)
